Measurements published in US4405625A, “Method of treating hyperglycemia with 1,3-dioxo-1H-benz[de]isoquinoline-2(3H)-acetic acid” (Ayerst, McKenna and Harrison Limited, priority 1979, dated 1983).

Experiments:
blood glucose = experiment: Clinical tests in diabetic patients: blood glucose levels; type: in vivo, human (diabetic patients)
Description: All patients were on a controlled diet. Patient A also was receiving the oral antidiabetic agent, glyburide (Daonil™) and patient C also was receiving the diuretic chlorthalidone (Hygroton™).

plasma glucagon = experiment: Arginine-induced glucagon release in intact rats; type: in vivo, rat (male Sprague-Dawley)
Method: (§1) After light deithyl ether anaesthetization, the animals were injected with a bolus of saline or alrestatin (sodium salt form in 0.3 ml saline/100 g of body weight) in the external jugular vein followed immediately with a bolus of arginine-HCl (British Drug House ) at a dose of 100 mg/100 g of body weight, cf. […] Vehicle control animals received a second injection of saline. Five minutes later trunk blood was collected by decapitation into chilled tubes containing sodium heparin (Upjohn) and aprotinin(Trasylol™, Boehringer-Ingelheim Dorval, Quebec, Canada) (20 U and 1000 KIU per ml whole blood, respectively). Plasma was collected after centrifugation, stored at -20° C. and assayed for immunoreactive glucagon and insulin levels within 2 weeks.
(§2) Rat insulin purchased from Novo A/S, Copenhagen, Denmark, was used as unlabelled standard. […] Glucagon antiserum (Antiserum 30K, purchased from Dr. R. H. Unger, Houston, Tex., U.S.A.) was employed in the assay. […] Metab. […] Metab. […] Antibody bound hormone was separated from free hormone by conventional charcoal-dextran methods.

plasma insulin [1] = experiment: Intravenous glucose tolerance test in anaesthetized fasted non-diabetic male intact rats: plasma insulin; type: in vivo, rat (male Sprague Dawley); conditions: 0.75 mmol/kg i.v.
Method: (§3) A description of this experiment is as follows.
(§4) Male Sprague Dawley rats (200-250 g, Canadian Breeding Laboratories, St. Constant, Quebec, Canada) were used in the experiment. There were 11 animals in the group. The animals were kept in a room with constant light-dark cycle and temperature. They were allowed food (Purina Lab Chow™) and water ad libitum for at least three days before being utilized. The animals were then fasted for 24 hours and anaesthetized with nembutal (50 mg/kg, intraperitoneally; Abbott Laboratories, Montreal, Quebec, Canada.) The jugular veins were exposed and a fasting blood sample was drawn by the transmusculature puncture method, Y. Kato, J. Dupre and J. C. Beck, Endocrinology, 93, 135 (1973), employing a sodium heparin (The Upjohn Company, Don Mills, Ontario, Canada) washed syringe. Alrestatin sodium at a dose of 0.75 mmol/kg was administered as a bolus in the jugular vein followed immediately by a bolus of D-glucose (300 mg/kg; British Drug House, Montreal, Quebec, Canada). Control animals received an injection of sodium chloride (0.75 mmol/kg) instead of the alrestatin sodium. Blood samples were drawn at 5, 10 and 15 minutes after injection of the glucose. The wounds then were closed with autoclips (Clay Adams Co., Parsippany, N. J., U.S.A.) and the animals were allowed food and water for another three day period before the experiment was repeated, i.e., on day 4. […]
(§5) Plasma insulin was measured by radioimmunoassay using a charcoal separation method, V. Herbert et al, J. Clin. Endocrinol., 25, 1375 (1965). […] Plasma glucose was measured by a glucose oxidase method employing a Beckman Glucose Analyser, see Beckman Company Manual, Palo Alto, Calif., U.S.A.
(§6) The results, noted below, are expressed as mean± S.E.M. The statistical significance of changes in the concentration of plasma glucose (mg/100 ml) and insulin (μU/ml), in response to alrestatin or the vehicle, from basal fasting values was determined on the differences between group means by the Student's […]. […]

plasma glucose = experiment: Intravenous glucose tolerance test in anaesthetized fasted non-diabetic male intact rats: plasma glucose; type: in vivo, rat (male Sprague Dawley); conditions: 0.75 mmol/kg i.v., mean±S.E.M.
Method: as §3, §4, §5, §6

plasma insulin [2] = experiment: Arginine-induced insulin release in intact rats; type: in vivo, rat (male Sprague-Dawley)
Method: as §1, §2

[3] = 200 mg/kg i.v. immediately before arginine 100 mg/100 g
[4] = 35-200 mg/kg i.v. immediately before arginine 100 mg/100 g

With `O=C(O)CN1C(=O)c2cccc3cccc(c23)C1=O` [alrestatin sodium] the “lowering of blood sugar levels” value (blood glucose; 50 mg/kg/day i.v. for five days, diabetic patients) was “effective in lowering blood sugar levels”, the “blood glucose, fasting” value (blood glucose; Patient A (also on glyburide), day 1, 50 mg/kg/day i.v., pretreatment 162) was 132 mg % and the “blood glucose, 2hr postprandial” value (blood glucose; Patient A (also on glyburide), day 1, 50 mg/kg/day i.v., pretreatment 276) was 185 mg %. For the same molecule, the “blood glucose, fasting” value (blood glucose; Patient A (also on glyburide), day 2, 50 mg/kg/day i.v., pretreatment 162) was 130 mg %, the “blood glucose, 2hr postprandial” value (blood glucose; Patient A (also on glyburide), day 2, 50 mg/kg/day i.v., pretreatment 276) was 215 mg % and the “blood glucose, fasting” value (blood glucose; Patient A (also on glyburide), day 3, 50 mg/kg/day i.v., pretreatment 162) was 97 mg %. The “blood glucose, 2hr postprandial” value (blood glucose; Patient A (also on glyburide), day 3, 50 mg/kg/day i.v., pretreatment 276) was 155 mg %, the “blood glucose, fasting” value (blood glucose; Patient A (also on glyburide), day 4, 50 mg/kg/day i.v., pretreatment 162) was 90 mg % and the “blood glucose, 2hr postprandial” value (blood glucose; Patient A (also on glyburide), day 4, 50 mg/kg/day i.v., pretreatment 276) was 117 mg %. For the same molecule, the “blood glucose, fasting” value (blood glucose; Patient A (also on glyburide), day 5, 50 mg/kg/day i.v., pretreatment 162) was 132 mg %, the “blood glucose, 2hr postprandial” value (blood glucose; Patient A (also on glyburide), day 5, 50 mg/kg/day i.v., pretreatment 276) was 230 mg % and the “blood glucose, fasting” value (blood glucose; Patient A (also on glyburide), follow-up after 5 days i.v. treatment, pretreatment 162) was 111 mg %. For the same molecule, the “blood glucose, 2hr postprandial” value (blood glucose; Patient A (also on glyburide), follow-up after 5 days i.v. treatment, pretreatment 276) was 207 mg %, the “blood glucose, fasting” value (blood glucose; Patient B, day 1, 50 mg/kg/day i.v., pretreatment 90) was 92 mg % and the “blood glucose, 2hr postprandial” value (blood glucose; Patient B, day 1, 50 mg/kg/day i.v., pretreatment 119) was 72 mg %. The “blood glucose, fasting” value (blood glucose; Patient B, day 2, 50 mg/kg/day i.v., pretreatment 90) was 89 mg %, the “blood glucose, 2hr postprandial” value (blood glucose; Patient B, day 2, 50 mg/kg/day i.v., pretreatment 119) was 86 mg % and the “blood glucose, fasting” value (blood glucose; Patient B, day 3, 50 mg/kg/day i.v., pretreatment 90) was 86 mg %. The “blood glucose, 2hr postprandial” value (blood glucose; Patient B, day 3, 50 mg/kg/day i.v., pretreatment 119) was 94 mg %, the “blood glucose, fasting” value (blood glucose; Patient B, day 4, 50 mg/kg/day i.v., pretreatment 90) was 50 mg % and the “blood glucose, 2hr postprandial” value (blood glucose; Patient B, day 4, 50 mg/kg/day i.v., pretreatment 119) was 60 mg %. For the same molecule, the “blood glucose, fasting” value (blood glucose; Patient B, day 5, 50 mg/kg/day i.v., pretreatment 90) was 50 mg %, the “blood glucose, 2hr postprandial” value (blood glucose; Patient B, day 5, 50 mg/kg/day i.v., pretreatment 119) was 43 mg % and the “blood glucose, fasting” value (blood glucose; Patient B, follow-up after 5 days i.v. treatment, pretreatment 90) was 81 mg %. The “blood glucose, 2hr postprandial” value (blood glucose; Patient B, follow-up after 5 days i.v. treatment, pretreatment 119) was 87 mg %, the “blood glucose, fasting” value (blood glucose; Patient C (also on chlorthalidone), day 1, 50 mg/kg/day i.v., pretreatment 95) was 133 mg % and the “blood glucose, 2hr postprandial” value (blood glucose; Patient C (also on chlorthalidone), day 1, 50 mg/kg/day i.v., pretreatment 190) was 128 mg %. The “blood glucose, fasting” value (blood glucose; Patient C (also on chlorthalidone), day 2, 50 mg/kg/day i.v., pretreatment 95) was 111 mg %, the “blood glucose, 2hr postprandial” value (blood glucose; Patient C (also on chlorthalidone), day 2, 50 mg/kg/day i.v., pretreatment 190) was 145 mg % and the “blood glucose, fasting” value (blood glucose; Patient C (also on chlorthalidone), day 3, 50 mg/kg/day i.v., pretreatment 95) was 104 mg %. For the same molecule, the “blood glucose, 2hr postprandial” value (blood glucose; Patient C (also on chlorthalidone), day 3, 50 mg/kg/day i.v., pretreatment 190) was 141 mg %, the “blood glucose, fasting” value (blood glucose; Patient C (also on chlorthalidone), day 4, 50 mg/kg/day i.v., pretreatment 95) was 50 mg % and the “blood glucose, 2hr postprandial” value (blood glucose; Patient C (also on chlorthalidone), day 4, 50 mg/kg/day i.v., pretreatment 190) was 90 mg %. The “blood glucose, fasting” value (blood glucose; Patient C (also on chlorthalidone), day 5, 50 mg/kg/day i.v., pretreatment 95) was 77 mg %, the “blood glucose, 2hr postprandial” value (blood glucose; Patient C (also on chlorthalidone), day 5, 50 mg/kg/day i.v., pretreatment 190) was 106 mg % and the “blood glucose, fasting” value (blood glucose; Patient C (also on chlorthalidone), follow-up after 5 days i.v. treatment, pretreatment 95) was 119 mg %. The “blood glucose, 2hr postprandial” value (blood glucose; Patient C (also on chlorthalidone), follow-up after 5 days i.v. treatment, pretreatment 190) was 149 mg %, the “effect on arginine-stimulated glucagon increase” value (plasma glucagon; [3]) was “completely prevented the increase caused by arginine” and the “effect on arginine-stimulated glucagon concentrations” value (plasma glucagon; [4]) was “decreased the glucagon concentrations”. The “mean incremental change of plasma insulin” value (plasma insulin [1]; 5 min after i.v. glucose (300 mg/kg), mean±S.E.M., vehicle 32.9±5.2, p<0.02) was 76.9±16.7 μU/ml, the “plasma insulin levels vs vehicle” value (plasma insulin [1]; 10 min after i.v. glucose (300 mg/kg)) was “significantly greater” and the “plasma insulin levels vs vehicle” value (plasma insulin [1]; 15 min after i.v. glucose (300 mg/kg)) was “greater at 15 minutes in the alrestatin treated group although the difference was not significant”. The “mean incremental change of plasma glucose” value (plasma glucose; 5 min after i.v. glucose (300 mg/kg), vehicle 96±4.7, NS) was 83.3±5.4 mg %, the “mean incremental change of plasma glucose” value (plasma glucose; 10 min after i.v. glucose (300 mg/kg), vehicle 82.8±7.5, p<0.05) was 58.8±8.5 mg % and the “mean incremental change of plasma glucose” value (plasma glucose; 15 min after i.v. glucose (300 mg/kg), vehicle 78.4±10.7, p<0.05) was 45.4±9.6 mg %. The “increase of arginine-induced insulin release” value (plasma insulin [2]; [3]) was “about 2.5 fold” and the “effect on arginine-induced insulin release” value (plasma insulin [2]; [4]) was “increased the insulin release observed with arginine”.
